Laboratory results as given in patent publication US6143740A, “Heregulin antagonists and methods for their use” (Georgetown University, priority 1999, dated 2000).

Key:
[1] = system: EGF-mediated signaling pathway (MDA-468 cells); experiment: Specificity: incubation with EGF in EGFR overexpressing cell line MDA-468; format: cell-based
[2] = system: HRG-induced tyrosine phosphorylation (MDA-453 cells); experiment: Inhibition of HRG-induced phosphorylation, dose dependence in MDA-453 cells; format: cell-based; details: 10 nM HRG
Description: (§1) The ability of compounds of the invention to block HRG-induced phosphorylation was tested by co-incubation with 10 nM HRG (maximal induction).

32D cells = experiment: IL-3 stimulated (HRG-independent) growth, 32D; format: cell-based, murine
Description: (§2) Inhibition of HRG-dependent cell proliferation--Since most human cancer cells express more than one of the erbB receptors and different heterodimerization might alter the binding affinity and/or internalization, it is difficult to define the exact correlation of the receptor expression and the antagonist activity of the small molecules. To overcome this difficulty, a 32D cell (murine, hematopoietic) model system, in which the 32D cells were transfected with erbB4 receptor, can be utilized. […] 32t cells transfected with erbB-4 will proliferate in the presence of either HRG or IL-3. With this 32D cell model system, compounds of the invention can be tested for their antagonist activity and specificity in both HRG-dependent and HRG-independent growth.

32D/erbB-4 cells [3] = experiment: IL-3 stimulated (HRG-independent) growth, 32D/erbB-4; format: cell-based, murine
Description: as §2

32D/erbB-4 cells [4] = experiment: HRG-dependent cell proliferation, 32D/erbB-4; format: cell-based, murine
Description: as §2

HRG receptor = experiment: Structure-activity relationship of rifamycin analogues as heregulin antagonists (FIGS. 6 and 7); format: cell-based; details: substituent at C9 position
Description: Replacement of residues 177 and 178 by an acetyl group decreases the binding affinity of HRG to its receptor by more than 50-fold (Barbacci et al., J. Bio. Chem. 1995; 270(16)9585-9).
The structure-activity relationships of rifamycin analogues also indicates the importance of this region (FIGS. 6 and 7).
Inhibition of receptor binding--To investigate whether a compound can inhibit binding between HRG and its receptors, binding assays were performed using ^125 I labeled EGF domain of HRG-β1 (HED-β1). The binding affinity of iodine-labeled HED-β1 in T47D or MDA-453 cells was pre-determined. Unlabeled compounds were co-incubatedwith the radiolabeled ligand for 2 hours at 4° C., and the cells were washed 3 times with an ice-cold binding buffer. The labeled cells were lysed, and counted in a gamma-counter. Compounds that displaced more than 50% of labeled HED-β1 from the HRG-receptors were then re-examined in a dose-dependent manner.
as §1

| SMILES | effect on EGF-mediated signaling pathway [1] | inhibition of HRG-induced phosphorylation [2] | inhibition of IL-3 stimulated growth (32D cells) | inhibition of IL-3 stimulated growth (32D/erbB-4 cells [3]) | HRG-dependent cell growth inhibition (32D/erbB-4 cells [4]) | antagonist activity (structure-activity, FIGS. 6 and 7) (HRG receptor) |
| --- | --- | --- | --- | --- | --- | --- |
| COC1C=COC2(C)Oc3c(C)c(O)c4c(O)c(c(C=NN5C(C)CN(Cc6cccc(O)c6)CC5C)c(O)c4c3C2=O)NC(=O)C(C)=CC=CC(C)C(O)C(C)C(O)C(C)C(OC(C)=O)C1C (stereo not drawn) [Compound A1] | no or very little effect | dose-dependent inhibition | not IL-3 stimulated growth | not IL-3 stimulated growth | inhibit only the HRG-dependent cell growth | – |
| COC1C=COC2(C)Oc3c(C)c(O)c4c(O)c(c(C=NN(C)C56CC7CC(CC(C7)C5)C6)c(O)c4c3C2=O)NC(=O)C(C)=CC=CC(C)C(O)C(C)C(O)C(C)C(OC(C)=O)C1C (stereo not drawn) [Compound A3] | no or very little effect | dose-dependent inhibition | – | – | – | fairly good activities |
| COC1C=COC2(C)Oc3c(C)c(O)c4c(O)c(c(C=NN5CCCCCCCCCCCCCCCCC5)c(O)c4c3C2=O)NC(=O)C(C)=CC=CC(C)C(O)C(C)C(O)C(C)C(OC(C)=O)C1C (stereo not drawn) [Compound A4] | – | – | – | – | – | fairly good activities |
